# Reference: the NIST ThermoML archive (doi:10.1016/j.jct.2015.07.028)
# ± gives the expanded uncertainty stated by the source.
# Details: Liquid, Closed cell (Static) method
smiles,measurement,setting,value
O [water],vapor or sublimation pressure,276.1 K,0.753 ± 0.011 kPa
same,vapor or sublimation pressure,276.16 K,0.76 ± 0.011 kPa
same,vapor or sublimation pressure,278.47 K,0.894 ± 0.013 kPa
same,vapor or sublimation pressure,280.8 K,1.05 ± 0.015 kPa
same,vapor or sublimation pressure,283.11 K,1.223 ± 0.02 kPa
same,vapor or sublimation pressure,285.49 K,1.43 ± 0.021 kPa
same,vapor or sublimation pressure,285.52 K,1.44 ± 0.021 kPa
same,vapor or sublimation pressure,288.24 K,1.708 ± 0.022 kPa
same,vapor or sublimation pressure,290.65 K,1.994 ± 0.026 kPa
same,vapor or sublimation pressure,290.71 K,2.01 ± 0.026 kPa
same,vapor or sublimation pressure,293.51 K,2.398 ± 0.03 kPa
same,vapor or sublimation pressure,295.49 K,2.697 ± 0.034 kPa
same,vapor or sublimation pressure,295.58 K,2.707 ± 0.034 kPa
same,vapor or sublimation pressure,298.22 K,3.182 ± 0.038 kPa
same,vapor or sublimation pressure,298.33 K,3.202 ± 0.039 kPa
same,vapor or sublimation pressure,300.72 K,3.703 ± 0.045 kPa
same,vapor or sublimation pressure,300.8 K,3.708 ± 0.045 kPa
same,vapor or sublimation pressure,302.99 K,4.213 ± 0.051 kPa
same,vapor or sublimation pressure,305.57 K,4.882 ± 0.057 kPa
same,vapor or sublimation pressure,305.6 K,4.869 ± 0.057 kPa
same,vapor or sublimation pressure,307.8 K,5.499 ± 0.065 kPa
same,vapor or sublimation pressure,310.42 K,6.36 ± 0.074 kPa
same,vapor or sublimation pressure,310.49 K,6.404 ± 0.074 kPa
same,vapor or sublimation pressure,312.73 K,7.192 ± 0.083 kPa
same,vapor or sublimation pressure,315.28 K,8.236 ± 0.095 kPa
same,vapor or sublimation pressure,315.37 K,8.313 ± 0.096 kPa
same,vapor or sublimation pressure,317.67 K,9.333 ± 0.11 kPa
same,vapor or sublimation pressure,320.11 K,10.56 ± 0.12 kPa
same,vapor or sublimation pressure,320.2 K,10.63 ± 0.12 kPa
same,vapor or sublimation pressure,322.5 K,11.93 ± 0.14 kPa
same,vapor or sublimation pressure,322.54 K,11.99 ± 0.14 kPa
same,vapor or sublimation pressure,325.01 K,13.51 ± 0.15 kPa
